Measured values reported in patent US9040529B2 (Vichem Chemie Kutató Kft., priority 2009, dated 2015).

Target: T1, human CDK9/CyclinT kinase complex (Homo sapiens, UniProt P50750)
T1 construct: purchased Proqinase 0371-0345-1
Assay: In vitro CDK9/CyclinT assay (IMAP fluorescence polarization kinase assay)
Type: biochemical
Conditions: for IC50: 5 nM CDK9/CyclinT, 400 nM TAMRA-Rbtide, 12 μM ATP, 1 hour at room temperature, read-out: CDK9 inhibitory range
Experimental: In Vitro CDK9/CyclinT Assay
The activity of the compounds described in the present invention can be determined by the following kinase assay, which measures the phosphorylation of a fluorescently-labeled peptide by human CDK9/CyclinT kinase complex by fluorescent polarization using a commercially available IMAP Screening Express Assay Kit (Molecular devices).
CDK9 kinase assays were performed in low protein binding 384-well plates (Corning 3676). Test compounds were diluted in 100% DMSO to 5 mM stock concentration, then further dilutions were made in H2O or 100% DMSO to desirable concentrations.
Each reaction consisted of 5 nM enzyme: CDK9/CyclinT (Proqinase cat#0371-0345-1), 400 nM TAMRA-Rbtide (synthetic 15-mer peptide derived from human retinoblastoma tumor suppressor protein labelled with TAMRA dye, Genecust Europe), 12 μM ATP (=Kmapp, Sigma-Aldrich) and kinase buffer: 20 mM MOPS pH 7 (Sigma-Aldrich), 1 mM DTT (Sigma-Aldrich), 10 mM MgCl2 (Sigma-Aldrich), 0.01% Tween 20 (Sigma-Aldrich).
For each reaction, 4 or 6 μl containing TAMRA-Rbtide, ATP and kianse buffer were combined with 2 μl diluted compound in H2O or 0.028 μl compound in 100% DMSO. The kinase reaction was started by the addition of 2 μl diluted enzyme. The reaction was allowed to run for 1 hours at room temperature. The reaction was stopped by adding 15 μl IMAP beads (1:400 beads in progressive (100% buffer A) 1× buffer). After an additional 1 hours, fluorescent polarization (Ex: 550-10 nm, Em: 590-10 nm, Dich: 561 nm) was measured using an Analyst GT (Molecular devices).

T1 sequence (P50750 whole entry): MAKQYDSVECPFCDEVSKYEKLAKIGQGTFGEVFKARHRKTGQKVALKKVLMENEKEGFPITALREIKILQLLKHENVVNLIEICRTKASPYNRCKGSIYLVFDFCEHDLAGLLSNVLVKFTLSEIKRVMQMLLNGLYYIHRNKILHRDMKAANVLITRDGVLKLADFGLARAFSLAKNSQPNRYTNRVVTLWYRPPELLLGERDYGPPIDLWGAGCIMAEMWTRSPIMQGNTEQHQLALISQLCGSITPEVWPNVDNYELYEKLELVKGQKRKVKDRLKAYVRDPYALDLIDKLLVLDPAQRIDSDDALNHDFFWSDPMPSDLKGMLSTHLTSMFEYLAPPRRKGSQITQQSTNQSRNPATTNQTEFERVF
T1 sequence (O60563 whole entry partner): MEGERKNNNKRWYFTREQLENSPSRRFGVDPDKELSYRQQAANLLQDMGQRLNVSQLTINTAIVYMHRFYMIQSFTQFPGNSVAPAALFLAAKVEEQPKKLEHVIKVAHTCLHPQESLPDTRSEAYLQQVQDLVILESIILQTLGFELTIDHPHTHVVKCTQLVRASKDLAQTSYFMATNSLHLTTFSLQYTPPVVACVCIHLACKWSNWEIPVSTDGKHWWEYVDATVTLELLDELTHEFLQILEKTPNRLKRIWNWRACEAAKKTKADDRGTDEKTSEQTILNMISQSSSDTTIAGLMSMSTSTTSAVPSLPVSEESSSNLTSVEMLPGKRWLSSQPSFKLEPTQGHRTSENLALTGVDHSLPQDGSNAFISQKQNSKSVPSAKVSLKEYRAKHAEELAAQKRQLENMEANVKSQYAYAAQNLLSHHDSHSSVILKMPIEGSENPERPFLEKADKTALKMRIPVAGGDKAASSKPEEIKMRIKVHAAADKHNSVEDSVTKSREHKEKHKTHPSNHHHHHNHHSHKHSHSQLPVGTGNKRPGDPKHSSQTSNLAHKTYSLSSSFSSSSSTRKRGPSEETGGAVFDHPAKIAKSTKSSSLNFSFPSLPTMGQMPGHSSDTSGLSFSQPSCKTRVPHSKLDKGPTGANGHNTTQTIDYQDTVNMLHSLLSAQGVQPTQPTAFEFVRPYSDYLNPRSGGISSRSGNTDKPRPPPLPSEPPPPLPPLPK

COc1cc(Cl)ccc1-c1cc(Nc2cccc(CNS(C)(=O)=O)c2)ncn1 [Example 25, N-{3-[6-(4-Chloro-2-methoxy-phenyl)-pyrimidin-4-ylamino]-benzyl}-methanesulfonamide]
IC50: < 1 µM

COc1ccccc1-c1cc(Nc2cccc(CNS(=O)(=O)c3cccs3)c2)ncn1 [Example 73, Thiophene-2-sulfonic acid 3-[6-(2-methoxy-phenyl)-pyrimidin-4-ylamino]-benzylamide]
IC50: < 1 µM

Oc1ccc(-c2cc(Nc3ccc(Cn4cnc5ccccc54)cc3)ncn2)cc1 [Example 89, 4-[6-(4-Benzoimidazol-1-ylmethyl-phenylamino)-pyrimidin-4-yl]-phenol]
IC50: < 1 µM

COc1cc(F)ccc1-c1cc(Nc2cccc(CNS(C)(=O)=O)c2)ncn1 [Example 7, N-{3-[6-(4-Fluoro-2-methoxy-phenyl)-pyrimidin-4-ylamino]-benzyl}-methanesulfonamide]
CDK9 inhibitory effect: nanomolar or low nanomolar range | IC50: < 0.1 µM

COc1cccc(-c2cc(Nc3cccc(CNS(C)(=O)=O)c3)ncn2)c1OC [Example 23, N-{3-[6-(2,3-Dimethoxy-phenyl)-pyrimidin-4-ylamino]-benzyl}-methanesulfonamide]
IC50: < 1 µM

COc1ccc(-c2cc(Nc3ccc(CNS(C)(=O)=O)cc3)ncn2)cc1 [Example 57, N-{4-[6-(4-Methoxy-phenyl)-pyrimidin-4-ylamino]-benzyl}-methanesulfonamide]
IC50: < 1 µM

CCOc1ccccc1-c1cc(Nc2ccc(CNS(C)(=O)=O)cc2)ncn1 [Example 37, N-{4-[6-(2-Ethoxy-phenyl)-pyrimidin-4-ylamino]-benzyl}-methanesulfonamide]
CDK9 inhibitory effect: nanomolar or low nanomolar range | IC50: < 0.1 µM

COc1ccccc1-c1cc(Nc2cccc(CNS(=O)(=O)c3ccc(F)cc3)c2)ncn1 [Example 72, 4-Fluoro-N-{3-[6-(2-methoxy-phenyl)-pyrimidin-4-ylamino]-benzyl}-benzenesulfonamide]
IC50: < 1 µM

CS(=O)(=O)NCc1cccc(Nc2cc(-c3ccc(F)cc3F)ncn2)c1 [Example 17, N-{3-[6-(2,4-Difluoro-phenyl)-pyrimidin-4-ylamino]-benzyl}-methanesulfonamide]
IC50: < 10 µM

Oc1ccc(-c2cc(Nc3cccc(CNc4nc5ccccc5[nH]4)c3)ncn2)cc1 [Example 78, 4-(6-{3-[(1H-Benzoimidazol-2-ylamino)-methyl]-phenylamino}-pyrimidin-4-yl)-phenol]
IC50: < 1 µM

COc1cc(F)ccc1-c1cc(Nc2ccc(CNS(C)(=O)=O)cc2)ncn1 [Example 39, N-{4-[6-(4-Fluoro-2-methoxy-phenyl)-pyrimidin-4-ylamino]-benzyl}-methanesulfonamide]
CDK9 inhibitory effect: nanomolar or low nanomolar range | IC50: < 0.1 µM

COc1ccccc1-c1cc(Nc2cccc(CNC(=O)Nc3ccc(F)cc3)c2)ncn1 [Example 85, 1-(4-Fluoro-phenyl)-3-{3-[6-(2-methoxy-phenyl)-pyrimidin-4-ylamino]-benzyl}-urea]
IC50: < 10 µM

COc1ccc(F)cc1-c1cc(Nc2cccc(CNc3nc4ccccc4[nH]3)c2)ncn1 [Example 62, (1H-Benzoimidazol-2-yl)-{3-[6-(5-fluoro-2-methoxy-phenyl)-pyrimidin-4-ylamino]-benzyl}-amine]
IC50: < 1 µM

COc1cccc(F)c1-c1cc(Nc2cccc(CNS(C)(=O)=O)c2)ncn1 [Example 13, N-{3-[6-(2-Fluoro-6-methoxy-phenyl)-pyrimidin-4-ylamino]-benzyl}-methanesulfonamide]
CDK9 inhibitory effect: nanomolar or low nanomolar range | IC50: < 0.1 µM

CS(=O)(=O)NCc1cccc(Nc2cc(-c3ccccc3OC(F)(F)F)ncn2)c1 [Example 15, N-{3-[6-(2-Trifluoromethoxy-phenyl)-pyrimidin-4-ylamino]-benzyl}-methanesulfonamide]
IC50: < 10 µM

COc1cccc(F)c1-c1cc(Nc2cccc(Cn3cnc4ccccc43)c2)ncn1 [Example 79, (3-Benzoimidazol-1-ylmethyl-phenyl)-[6-(2-fluoro-6-methoxy-phenyl)-pyrimidin-4-yl]-amine]
IC50: < 0.1 µM

O=C1c2ccccc2C(=O)N1Cc1cccc(Nc2cc(Cl)ncn2)c1 [Example 67, 2-[3-(6-Chloro-pyrimidin-4-ylamino)-benzyl]-isoindole-1,3-dione]
IC50: > 10 µM

CSc1ccccc1-c1cc(Nc2cccc(CNS(C)(=O)=O)c2)ncn1 [Example 28, N-{3-[6-(2-Methylsulfanyl-phenyl)-pyrimidin-4-ylamino]-benzyl}-methanesulfonamide]
IC50: < 1 µM

CCCS(=O)(=O)NCc1cccc(Nc2cc(-c3ccccc3OC)ncn2)c1 [Example 71, Propane-1-sulfonic acid 3-[6-(2-methoxy-phenyl)-pyrimidin-4-ylamino]-benzylamide]
CDK9 inhibitory effect: nanomolar or low nanomolar range | IC50: < 0.1 µM

CS(=O)(=O)NCc1cccc(Nc2cc(-c3ccccc3Oc3ccccc3)ncn2)c1 [Example 4, N-{3-[6-(2-Phenoxy-phenyl)-pyrimidin-4-ylamino]-benzyl}-methanesulfonamide]
IC50: < 1 µM

CC(C)Oc1ccccc1-c1cc(Nc2cccc(CNS(C)(=O)=O)c2)ncn1 [Example 8, N-{3-[6-(2-Isopropoxy-phenyl)-pyrimidin-4-ylamino]-benzyl}-methanesulfonamide]
IC50: < 1 µM

COc1cc(F)ccc1-c1cc(Nc2cccc(Cn3c(CN4CCOCC4)nc4ccccc43)c2)ncn1 [Example 94, [6-(4-Fluoro-2-methoxy-phenyl)-pyrimidin-4-yl]-[3-(2-morpholin-4-ylmethyl-benzoimidazol-1-ylmethyl)-phenyl]-amine]
IC50: < 10 µM

COc1ccccc1-c1cc(Nc2ccc(CNS(C)(=O)=O)cc2)ncn1 [Example 34, N-{4-[6-(2-Methoxy-phenyl)-pyrimidin-4-ylamino]-benzyl}-methanesulfonamide]
IC50: < 1 µM

COc1ccc(F)cc1-c1cc(Nc2cccc(Cn3cnc4ccccc43)c2)ncn1 [Example 66, (3-Benzoimidazol-1-ylmethyl-phenyl)-[6-(5-fluoro-2-methoxy-phenyl)-pyrimidin-4-yl]-amine]
CDK9 inhibitory effect: nanomolar or low nanomolar range | IC50: < 0.1 µM

C[S+]([O-])c1ccccc1-c1cc(Nc2cccc(CNS(C)(=O)=O)c2)ncn1 (stereo not shown) [Example 29, N-{3-[6-(2-Methanesulfinyl-phenyl)-pyrimidin-4-ylamino]-benzyl}-methanesulfonamide]
IC50: < 10 µM

Clc1cc(Nc2cccc(Cn3c(CN4CCOCC4)nc4ccccc43)c2)ncn1 [Example 92, (6-Chloro-pyrimidin-4-yl)-[3-(2-morpholin-4-ylmethyl-benzoimidazol-1-ylmethyl)-phenyl]amine]
IC50: > 10 µM

COc1cccc(-c2cc(Nc3ccc(CNS(C)(=O)=O)cc3)ncn2)c1OC [Example 55, N-{4-[6-(2,3-Dimethoxy-phenyl)-pyrimidin-4-ylamino]-benzyl}-methanesulfonamide]
IC50: < 1 µM

CS(=O)(=O)NCc1ccc(Nc2cc(-c3ccccc3C(F)(F)F)ncn2)cc1 [Example 43, N-{4-[6-(2-Trifluoromethyl-phenyl)-pyrimidin-4-ylamino]-benzyl}-methanesulfonamide]
IC50: > 10 µM

CS(=O)(=O)NCc1cccc(Nc2cc(-c3ccccc3C(F)(F)F)ncn2)c1 [Example 18, N-{3-[6-(2-Trifluoromethyl-phenyl)-pyrimidin-4-ylamino]-benzyl}-methanesulfonamide]
IC50: > 10 µM

CS(=O)(=O)NCc1cccc(Nc2cc(-c3ccccc3COc3ccc(OC(F)(F)F)cc3)ncn2)c1 [Example 30, N-(3-{6-[2-(4-Trifluoromethoxy-phenoxymethyl)-phenyl]-pyrimidin-4-ylamino}-benzyl)-methanesulfonamide]
IC50: > 10 µM

COc1cc(Cl)ccc1-c1cc(Nc2ccc(CNS(C)(=O)=O)cc2)ncn1 [Example 54, N-{4-[6-(4-Chloro-2-methoxy-phenyl)-pyrimidin-4-ylamino]-benzyl}-methanesulfonamide]
CDK9 inhibitory effect: nanomolar or low nanomolar range | IC50: < 0.1 µM

CCCOc1ccccc1-c1cc(Nc2ccc(CNS(C)(=O)=O)cc2)ncn1 [Example 53, N-{4-[6-(2-Propoxy-phenyl)-pyrimidin-4-ylamino]-benzyl}-methanesulfonamide]
CDK9 inhibitory effect: nanomolar or low nanomolar range | IC50: < 0.1 µM

Clc1cc(Nc2cccc(Cn3cnc4ccccc43)c2)ncn1 [Example 63, (3-Benzoimidazol-1-ylmethyl-phenyl)-(6-chloro-pyrimidin-4-yl)-amine]
IC50: < 10 µM

CS(=O)(=O)NCc1ccc(Nc2cc(-c3cn[nH]c3)ncn2)cc1 [Example 58, N-{4-[6-(1H-Pyrazol-4-yl)-pyrimidin-4-ylamino]-benzyl}-methanesulfonamide]
IC50: > 10 µM

CS(=O)(=O)NCc1cccc(Nc2cc(-c3ccccc3F)ncn2)c1 [Example 16, N-{3-[6-(2-Fluoro-phenyl)-pyrimidin-4-ylamino]-benzyl}-methanesulfonamide]
IC50: < 10 µM
